Laboratory results from paper PMC13500670, “The U1 snRNP protein U1C and Helix H of U1 snRNA are critical for small molecule splicing modulator function” (Nature Communications, 2026).

Assays:
[1] = test system: splicing events in human SH-SY5Y cells; conditions: 24 nM (approximately 2 times the IC50 for HTT), 24 h; cited from earlier work
[2] = target: T1, native U1 snRNP + SMN2 5' ss oligo (Homo sapiens, UniProt P09234); test: FP: native U1 snRNP binding to SMN2 5' ss oligo with DMSO or compound; conditions: Fig. 1B; 10 μM branaplam
T1 construct: we added a large excess of full-length U1C (800 nM) expressed in and purified from E. coli; endogenous in cells; host or cells: HeLa-S3 with CRISPR knock-in of a C-terminal HTP tag on U1A; the added U1C came from E. coli
Procedure: (§1) We engineered a protein A-tag on U1A in HeLa cells using CRISPR-Cas9 and purified native U1 snRNP using the protein A tag and IgG resin (Supplementary Fig. 1A). […] Since U1C is weakly associated with U1 snRNP and may fall off at low U1 snRNP concentrations, we added a large excess of full-length U1C (800 nM) expressed in and purified from E. coli in all binding reactions unless otherwise stated.
(§2) U1A-HTP cells were adapted to grow in suspension in Joklik’s MEM (Sigma) supplemented with 5% (v/v) newborn calf serum and 1× Pluronic™ F-68 (Gibco). […]
(§3) All of 5′-FAM labeled RNA oligos used in this study were synthesized and purified by IDT (USA). Fluorescence polarization (FP) assays were performed in binding buffer (20 mM HEPES pH 7.5, 1 mM MgCl2, 200 mM KCl, 0.01% TritonX-100, 0.1%PEG3350, 2%DMSO) at room temperature using a Envision HTS Plate Reader system (Revvity). […] The equilibrium dissociation constants (Kd) of binding reaction were calculated using the following single-site binding model formula in GraphPad Prism: y=START+(END−START)x/kD+x where x and y represent the concentration of U1 snRNP (or U1 snRNA) and the polarization value measured respectively, START represents the polarization value of protein-free nucleic acid probe, END represents the maximum polarization value when U1 snRNP (or U1 snRNA) binds to the fluorescently labeled 5′ ss oligo. […]

[3] = test system: full length U1 snRNA + HTT 5' ss oligo with -1A deleted; test: FP: full-length U1 snRNA + HTT 5' ss oligo with -1A deleted (Supplementary Fig. 5E); type: binding, human
Procedure: To ensure the presence of a −1A bulge in the RNA duplex, we extended the U1 snRNA to nucleotide 1–16 and generated an artificial HTT 5′ ss oligo that added 4 additional nucleotides upstream of the −4C nucleotide to ensure stable base pairing upstream of the potential −1A bulge.
as §3

[4] = test system: SMN2 pre-mRNA + native or reconstituted U1 snRNP; test: Pull-down of native or reconstituted U1 snRNP by immobilized SMN2 pre-mRNA; type: binding, human; conditions: Fig. 1F; 50 μM Branaplam vs 0.5% DMSO
Text: In this assay, we immobilized Minx (as a positive control with a canonical 5′ ss) or SMN2 pre-mRNA containing the weak 5′ ss of exon 7 on amylose resin, pulled down either native or reconstituted U1 snRNP, and analyzed the RNAs in the pulldown samples as a surrogate of the amount of U1 snRNP bound to the pre-mRNA.
The SMN2 pre-mRNA fragment used in pull down experiment contains 100 nt up and downstream of the 5′ ss of SMN2 intron 7 followed by three copies of MS2 tag. It was cloned downstream of a T7 promoter in the Sp72 vector. The SMN2 pre-mRNA was in vitro transcribed and purified by 7 M Urea denaturing gel.
The complex was then incubated with amylose resin and washed with the same buffer. The resins were treated in 5 μl buffer containing 1 mg/ml proteinase K at 37 °C for 30 min to release the RNAs. The resulting samples were run on 6% denaturing polyacrylamide gel and stained with Sybr Gold to visualize the RNAs.

[5] = target: T2, native U1 snRNP + HTT 5' ss oligo (Homo sapiens, UniProt P09234); test: FP: native U1 snRNP binding to HTT 5' ss oligo; conditions: Fig. 1C; 10 μM branaplam
T2 construct: we added a large excess of full-length U1C (800 nM) expressed in and purified from E. coli; endogenous in cells; host or cells: HeLa-S3 with CRISPR knock-in of a C-terminal HTP tag on U1A; the added U1C came from E. coli
Procedure: as §1, §2, §3

CC1(C)CC(Oc2ccc(-c3ccc(-c4cn[nH]c4)cc3O)nn2)CC(C)(C)N1 [Branaplam, branaplam]
number of splicing events affected [1]: 165
increase of binding affinity by compound versus DMSO [2]: about twofold
effect of compound on binding [3]: not improved
amount of native or reconstituted U1 snRNP pulled down by SMN2 pre-mRNA [4]: significantly increased
increase of binding affinity by compound versus DMSO [5]: about twofold
